Reference: US9562057B2, “(Thieno[2,3-b][1,5]benzoxazepin-4-yl)piperazin-1-yl compounds as dual activity H1 inverse agonists/5-HT2A antagonists” (Eli Lilly and Company, priority 2013, dated 2017)
Structures can show the parent of a compound that is named as a salt.

Experiments:
male Wistar rats = assay: Sleep and behavioral monitoring in rats (EEG, EMG, motion); type: in vivo; details: for Rebound Insomnia Adj. Mean: NREM+REM sleep in 7th-9th hours post-treatment; for Rebound Insomnia Adj. Mean / Cumulative Total sleep Adj. Mean / REM inhibition Adj. Mean / Cumulative NREM sleep Adj. Mean / Locomotor Activity Intensity Adj. Mean: adjusted difference from vehicle; for Cumulative Total sleep Adj. Mean: NREM+REM; for Cumulative Total sleep Adj. Mean / Average Sleep Bout Adj. Mean / Longest Sleep Bout Adj. Mean / Cumulative NREM sleep Adj. Mean / Locomotor Activity Intensity Adj. Mean: first 6 hr. post-treatment; for REM inhibition Adj. Mean: cumulative REM sleep, first 12 hr. post-treatment
Protocol: The compound of the present invention is tested in rats for its ability to increase the amount of sleep or decrease sleep interruption or both without undesired effects such as inhibition of REM sleep, waking motor impairment, and/or rebound insomnia. Test animals are continuously monitored by electro-encephalograms (EEG), electromyograms (EMG), and motion to measure cumulative nonREM sleep, cumulative total sleep, average sleep bout duration, longest sleep bout duration, rebound insomnia, REM sleep inhibition and locomotor activity intensity during wakefulness. Methods for such studies are known in the art (see for example methods described in Edgar D M, Seidel W F. Modafinil induces wakefulness without intensifying motor activity or subsequent rebound hypersomnolence in the rat. J Pharmacology & Experimental Therapeutics 1997; 283: 757-769; van Gelder R N, Edgar D M, Dement W C. Real-time automated sleep scoring: validation of a microcomputer-based system for mice. Sleep 1991, 14: 48-55; and Gross B A, Walsh C M, Turakhia A A, Booth V, Mashour G A, Poe G R. Open-source logic-based automated sleep scoring software using electrophysiological recordings in rats. J Neurosci Methods. 2009; 184(1):10-8.) Studies are conducted as follows:
Adult, male Wistar rats (approximately 270-300 g at time of surgery) are surgically fitted for chronic recording of EEG, EMG, and motion as follows: Rats are surgically prepared with a cranial implant consisting of four stainless steel screws for EEG recording (two frontal [3.9 mm anterior from bregma, and ±2.0 mm mediolaterally] and two occipital [6.4 mm posterior from bregma, ±5.5 mm mediolaterally]), and with two Teflon-coated stainless steel wires for EMG recording (positioned under the nuchal trapezoid muscles). All leads are soldered to a miniature connector (Microtech, Boothwyn, Pa.) prior to surgery. The implant assembly is affixed to the skull by the combination of the stainless steel EEG recording screws, cyanoacrylate applied between the implant connector and skull, and dental acrylic. Locomotor activity is monitored via a miniature transmitter (Minimitter PDT4000G, Philips Respironics, Bend, Oreg.) surgically placed into the abdomen. At least 3 weeks are allowed for recovery.
Each rat is housed individually within a microisolator cage modified with an inserted polycarbonate filter-top riser to allow more vertical headroom. A flexible cable that minimally restricts movement is connected at one end to a commutator afixed to the cage top and at the other end to the animal's cranial implant. Each cage is located within separate, ventilated compartments of a stainless steel sleep-wake recording chamber. Food and water are available ad libitum and the ambient temperature is maintained at about 23±1° C. A 24-hr light-dark cycle (LD 12:12) using fluorescent light is maintained throughout the study. Relative humidity averages approximately 50%. Animals are undisturbed for at least 30 his before and after each treatment.
The vehicle (placebo, methylcellulose 15 centipoise 0.25% in water) or one of the test compound dose levels is administered orally at 1 mL/kg pseudo-randomly such that no rat receives the same treatment twice, and no rat receives more than two of the 8 treatments in any one study. Each rat is removed from its cage for about a minute to be weighed and treated. At least 6 days “washout” period precede and follow each treatment. […]

5-HT1D = 5-HT1D (Homo sapiens, UniProt P28221); assay: 5-HT1D binding
Sequence of 5-HT1D (P28221 whole entry, species assumed): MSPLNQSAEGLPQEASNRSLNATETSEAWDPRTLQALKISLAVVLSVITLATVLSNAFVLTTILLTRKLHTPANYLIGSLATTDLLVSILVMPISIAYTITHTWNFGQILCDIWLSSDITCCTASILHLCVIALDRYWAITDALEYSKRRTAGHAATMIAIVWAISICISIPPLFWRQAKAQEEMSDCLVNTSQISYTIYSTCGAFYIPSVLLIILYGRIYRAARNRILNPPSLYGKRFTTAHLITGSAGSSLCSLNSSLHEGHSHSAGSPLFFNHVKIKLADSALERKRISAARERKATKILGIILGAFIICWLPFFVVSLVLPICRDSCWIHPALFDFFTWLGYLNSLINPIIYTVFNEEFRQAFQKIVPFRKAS
Text: Further, the compounds of the invention may be tested in binding assays and functional activity assays by well known methods for other physiologically important receptors such as, but not limited to, the hERG channel, other serotonin receptors (specifically 5-HT1B and 5-HT1D receptors, lack of agonist activity at 5-HT2B receptors, 5-HT2C, 5-HT5, 5-HT6, and 5-HT7 receptors), dopaminergic receptors (specifically D1, D2, and D3), GABAA receptors, adrenergic receptors and monoamine transporters.

[1] = threshold efficacy dose, 6 hr. after treatment, 4 parameter logistic regression, freebase
[2] = within 10 times the most conservative efficacy dose (0.78 mg/kg)

Cc1ccc2c(c1)Oc1sc(C3CC3)cc1C(N1CCN(CC(C)(C)C(=O)O)CC1)=N2 [Example 2, 3-[4-(2-Cyclopropyl-8-methyl-thieno[2,3-b][1,5]benzoxazepin-4-yl)piperazin-1-yl]-2,2-dimethyl-propanoic acid dihydrochloride]
Rebound Insomnia Adj. Mean (male Wistar rats; 0.025 mg/kg PO): 0.40 min | Cumulative Total sleep Adj. Mean (male Wistar rats; 0.025 mg/kg PO): 3.6 min | REM inhibition Adj. Mean (male Wistar rats; 0.025 mg/kg PO): 5.0 min | Average Sleep Bout Adj. Mean (male Wistar rats; 0.025 mg/kg PO): 1.08 n-fold increase over vehicle controls | Longest Sleep Bout Adj. Mean (male Wistar rats; 0.025 mg/kg PO): 1.26 n-fold increase over vehicle controls | Cumulative NREM sleep Adj. Mean (male Wistar rats; 0.025 mg/kg PO): -2.3 min | Locomotor Activity Intensity Adj. Mean (male Wistar rats; 0.025 mg/kg PO): −1.40 LMA counts per minute of EEG-defined wakefulness | Rebound Insomnia Adj. Mean (male Wistar rats; 0.1 mg/kg PO): -0.027 min | Cumulative Total sleep Adj. Mean (male Wistar rats; 0.1 mg/kg PO): 16.9 min | REM inhibition Adj. Mean (male Wistar rats; 0.1 mg/kg PO): -0.71 min | Average Sleep Bout Adj. Mean (male Wistar rats; 0.1 mg/kg PO): 1.19 n-fold increase over vehicle controls | Longest Sleep Bout Adj. Mean (male Wistar rats; 0.1 mg/kg PO): 1.07 n-fold increase over vehicle controls | Cumulative NREM sleep Adj. Mean (male Wistar rats; 0.1 mg/kg PO): 15.4 min | Locomotor Activity Intensity Adj. Mean (male Wistar rats; 0.1 mg/kg PO): 0.41 LMA counts per minute of EEG-defined wakefulness | Rebound Insomnia Adj. Mean (male Wistar rats; 0.25 mg/kg PO): 2.2 min | Cumulative Total sleep Adj. Mean (male Wistar rats; 0.25 mg/kg PO): 23.0 min | REM inhibition Adj. Mean (male Wistar rats; 0.25 mg/kg PO): 2.8 min | Average Sleep Bout Adj. Mean (male Wistar rats; 0.25 mg/kg PO): 1.34 n-fold increase over vehicle controls | Longest Sleep Bout Adj. Mean (male Wistar rats; 0.25 mg/kg PO): 1.55 n-fold increase over vehicle controls | Cumulative NREM sleep Adj. Mean (male Wistar rats; 0.25 mg/kg PO): 19.1 min | Locomotor Activity Intensity Adj. Mean (male Wistar rats; 0.25 mg/kg PO): −0.31 LMA counts per minute of EEG-defined wakefulness | Rebound Insomnia Adj. Mean (male Wistar rats; 0.5 mg/kg PO): -5.0 min | Cumulative Total sleep Adj. Mean (male Wistar rats; 0.5 mg/kg PO): 32.6 min | REM inhibition Adj. Mean (male Wistar rats; 0.5 mg/kg PO): 2.3 min | Average Sleep Bout Adj. Mean (male Wistar rats; 0.5 mg/kg PO): 1.59 n-fold increase over vehicle controls | Longest Sleep Bout Adj. Mean (male Wistar rats; 0.5 mg/kg PO): 1.81 n-fold increase over vehicle controls | Cumulative NREM sleep Adj. Mean (male Wistar rats; 0.5 mg/kg PO): 30.6 min | Locomotor Activity Intensity Adj. Mean (male Wistar rats; 0.5 mg/kg PO): −1.30 LMA counts per minute of EEG-defined wakefulness | Rebound Insomnia Adj. Mean (male Wistar rats; 1 mg/kg PO): -0.6 min | Cumulative Total sleep Adj. Mean (male Wistar rats; 1 mg/kg PO): 33.2 min | REM inhibition Adj. Mean (male Wistar rats; 1 mg/kg PO): 1.2 min | Average Sleep Bout Adj. Mean (male Wistar rats; 1 mg/kg PO): 1.60 n-fold increase over vehicle controls | Longest Sleep Bout Adj. Mean (male Wistar rats; 1 mg/kg PO): 2.16 n-fold increase over vehicle controls | Cumulative NREM sleep Adj. Mean (male Wistar rats; 1 mg/kg PO): 31.0 min | Locomotor Activity Intensity Adj. Mean (male Wistar rats; 1 mg/kg PO): −2.33 LMA counts per minute of EEG-defined wakefulness | Rebound Insomnia Adj. Mean (male Wistar rats; 3 mg/kg PO): 1.6 min | Cumulative Total sleep Adj. Mean (male Wistar rats; 3 mg/kg PO): 31.6 min | REM inhibition Adj. Mean (male Wistar rats; 3 mg/kg PO): 0.042 min | Average Sleep Bout Adj. Mean (male Wistar rats; 3 mg/kg PO): 1.92 n-fold increase over vehicle controls | Longest Sleep Bout Adj. Mean (male Wistar rats; 3 mg/kg PO): 2.16 n-fold increase over vehicle controls | Cumulative NREM sleep Adj. Mean (male Wistar rats; 3 mg/kg PO): 30.1 min | Locomotor Activity Intensity Adj. Mean (male Wistar rats; 3 mg/kg PO): 0.01 LMA counts per minute of EEG-defined wakefulness | Rebound Insomnia Adj. Mean (male Wistar rats; 10 mg/kg PO): 3.3 min | Cumulative Total sleep Adj. Mean (male Wistar rats; 10 mg/kg PO): 26.3 min | REM inhibition Adj. Mean (male Wistar rats; 10 mg/kg PO): -7.3 min | Average Sleep Bout Adj. Mean (male Wistar rats; 10 mg/kg PO): 1.56 n-fold increase over vehicle controls | Longest Sleep Bout Adj. Mean (male Wistar rats; 10 mg/kg PO): 2.12 n-fold increase over vehicle controls | Cumulative NREM sleep Adj. Mean (male Wistar rats; 10 mg/kg PO): 26.9 min | Locomotor Activity Intensity Adj. Mean (male Wistar rats; 10 mg/kg PO): −0.89 LMA counts per minute of EEG-defined wakefulness | REM sleep inhibition (in words) (male Wistar rats; at 3 mg/kg): without significant | cumulative NREM sleep time (in words) (male Wistar rats; at 3 mg/kg): significantly increase | cumulative total sleep time (in words) (male Wistar rats; at 3 mg/kg): significantly increase | inhibition of locomotor intensity (LMI) (in words) (male Wistar rats; at 3 mg/kg): without significant | rebound insomnia (in words) (male Wistar rats; at 3 mg/kg): without significant | REM sleep inhibition versus threshold value (male Wistar rats; at 10 mg/kg, threshold −10 min. cumulative REM sleep (lower confidence limit)): exceeds the threshold value | change in awake time following treatment (dose response curve, FIG. 2) (male Wistar rats; dose response): does not result in rebound insomnia | change in cumulative REM sleep time (dose response curve, FIG. 1) (male Wistar rats; dose response): does not inhibit REM sleep | change in distances moved during periods of wakefulness (dose response curve, FIG. 3) (male Wistar rats; dose response): does not inhibit or stimulate normal activity | Estimated efficacy dose (mg/kg), NREM accumulation = 30 min. (male Wistar rats; [1]): 0.78 mg/kg | Estimated efficacy dose (mg/kg), average sleep bout (1.5-fold increase) (male Wistar rats; [1]): 0.33 mg/kg | Estimated efficacy dose (mg/kg), longest sleep bout (1.75-fold increase) (male Wistar rats; [1]): 0.33 mg/kg | Estimated efficacy dose (mg/kg), total sleep accumulation = 25 min. (male Wistar rats; [1]): 0.19 mg/kg | undesired occurrences of REM inhibition (male Wistar rats; [2]): no undesired occurrences | undesired occurrences of rebound insomnia (male Wistar rats; [2]): no undesired occurrences | undesired occurrences of reduction in LMI (male Wistar rats; [2]): no undesired occurrences | Ki (5-HT1D): > 3.98 µM
